Measured values published in US20260376283A1, “A METHOD IMPLEMENTING MORPHOLOGICAL CHANGES OF EXTRACELLULAR ORGANELLE VESICLES SO AS TO EXAMINE THE TRANSPORTING ACTIVITY OF MEMBRANE TRANSPORT PROTEINS AND OTHER RELATED METHODS” (PARIS SCIENCES ET LETTRES, priority 2023, published 2026).
Entries after “also recorded” stand apart in the source; their conditions may differ. Read-outs that look alike come from different tables or passages of the source.

Key:
[1] = system: ion channel TMEM175 localized on lysosomes or endolysosomes vesicles; details: cited from earlier work
[2] = system: ion channel TMEM175 localized on lysosomes or endolysosomes vesicles; experiment: K+ ion channel TMEM175 transporting activity by endolysosome vesicle morphological change (Example 8); format: biochemical; details: role: substrate, KCl 100 mM inside, 1 mM outside with 200 mM sucrose
Method: Before starting acquisition, extracellular endolysosome vesicles are charged with K^+ ions thanks to a bath sonicator and an extracellular solution (210 mOsm/L) containing 100 mM of KCl and 10 mM of Hepes, pH 7.2. Then, extracellular endolysosome vesicles are seeded on a glass plate for observation. Before starting acquisition, extravesicular aqueous solution is removed to be changed when starting acquisition.
Once the acquisition is started, the extracellular organelle vesicle, held by the micropipette is passed through an extra-vesicular aqueous solution (200 mOsm/L) containing 1 mM of KCl and 200 mM of sucrose. Contacting very small amount of potassium ions with said extracellular organelle vesicle generates a concentration gradient of K^+ between the inside and the outside of the vesicles. […] This innovative process allows to examine the transporting activity of the ion channel TMEM175 localized on lysosomes or endolysosomes vesicles in absence and/or in presence of an antagonist (4-AP) and/or agonist (DCPIB).

[3] = system: giant organelles from the ER; experiment: Giant organelle formation after pre-treatment of cells (ER); format: cell-based; details: pre-treatment between 1 and 90 min before swelling
Source text: (§1) According to a particular embodiment of the first process, prior to the generation of giant extracellular organelle vesicles, cells may be treated with molecules to prevent protein degradation, modulate biochemical reactions on organelles, etc., so that giant extracellular organelle vesicles can bear specific biochemical properties. The metabolic conditions and the architecture of cells and its organelles can thus be further modified before step v), by chemicals and/or by modifying the expression level of proteins impacting the architecture of cells and/or their organelles and/or the metabolic conditions. […] These manipulations enable controlling the size of the recovered giant extracellular organelle vesicles and their contact: tuning the surface-to-volume ratio, prior to the osmotic swelling, impacting the future recovered giant organelle size, with adapted osmotic swelling. […]

[4] = system: giant extracellular organelles vesicles coming from autophagosomes; experiment: Giant organelle formation after pre-treatment of cells (autophagosomes); format: cell-based; details: added before swelling and extraction
Source text: as §1

[5] = system: giant extracellular organelles vesicles from endosome, lysosome, autolysosome and multivesicular body; experiment: Giant organelle formation after pre-treatment of cells (endosome, lysosome, autolysosome, multivesicular body); format: cell-based; details: added between 12 to 24 hours before swelling
Source text: as §1

[6] = system: ion pump SERCA localized on Endoplasmic Reticulum vesicles; experiment: Ca2+ pump transporting activity by morphological change (deflation/re-swelling) of ER extracellular organelle vesicles (Example 1); format: biochemical; details: role: substrate
Method: An initial HKM buffer was prepared with 50 mM Hepes (known as 2-[4-(2-hydroxyethyl)piperazin-1-yl]ethanesulfonic acid), 120 mM potassium acetate, and 1 mM MgCl2 (in Milli-Q water) at pH 7.4. Said initial HKM buffer has an osmolarity of 280±15 mOsm/L.
Then, a membrane tension is applied on cells so as to produce extracellular organelle vesicles without lysing them. At that step, the extracellular organelle vesicles are released (or produced) thanks to the lysis and the removal of the plasma membrane. The membrane tension is carried out by micro-manipulation of the cells under confocal microscope thanks to a micropipette aspiration technique. Micropipette radius is around 1 μm. Thanks to a slight aspiration, a bilayer tongue of the plasma membrane was sucked into the micropipette. The aspiration is then increased at an approximate rate of 10 mbar/min, causing a proportional increase in the bilayer surface tension. At a certain applied tension (e.g. surface tension<0.75 mN/m), the plasma membrane ruptured thanks to a pore opening in the plasma membrane and the extracellular organelle vesicles are released (or extracted).
After extraction, one or more extracellular organelle vesicles are isolated using a micropipette. The micropipettes are used to hold a vesicle during the following methods of the present invention. Before the addition of molecules (ions, sugars or drug molecules), an acquisition is launched to observe the initial size of the vesicle.
Once the acquisition is started, the extracellular organelle vesicle, held by the micropipette is passed through an aqueous solution containing CaCl2 (60 mOsm/L) and ATP (100 μM). Contacting calcium ions with said extracellular organelle vesicle increases the osmolarity of the extravesicular aqueous medium. […] This innovative process allows to examine the transporting activity of the ion pump SERCA localized on Endoplasmic Reticulum vesicles.
FIG. 1 A) represents an extracellular organelle vesicle of endoplasmic reticulum (ER) which is maintained thanks to a micropipette into a HKM diluted buffer (20 mOsm/L) as an extravesicular aqueous medium. This extracellular organelle vesicle has been isolated thanks to an ER resident protein (KDEL), over-expressed by COS7 cells, before organelle vesicles extraction.
At t=0s, CaCl2 (60 mOsm/L) and ATP (100 μM) were added. At t=20s, the ER extracellular organelle vesicle is deflated: it reached its minimum volume (Vi1) and its associated maximum fluorescence signal (Fl1).
Once the acquisition is started, the ER extracellular organelle vesicle, held by the micropipette is passed through an aqueous solution containing sucrose (60 mOsm). […] Sucrose can thus be used as a control or reference in the method of the present invention.

SERCA pump [7] = experiment: Screening of candidate compounds modulating SERCA activity by ER vesicle re-swelling (Example 4); format: biochemical; details: role: inhibitor; for re-swelling process in presence of inhibitor: thapsigargin 10 μM in DMSO, 10 min, CaCl2 60 mOsm/L, ATP 1 mM / 100 μM, compared to vesicle not incubated
Method: Once the ER extracellular organelle vesicles are extracted, thapsigargin (10 μM) in DMSO, is added to the medium. […] After 10 minutes of incubation with thapsigargin, and once the acquisition is started, the extracellular organelle vesicle, held by the micropipette is passed through an aqueous solution containing CaCl2 (60 mOsm/L) and ATP (1 mM).
FIG. 6 A) represents an ER extracellular organelle vesicle maintained thanks to a micropipette into a HKM diluted buffer (20 mOsm/L). This extracellular organelle vesicle has been isolated thanks to an ER resident protein, over-expressed by COS7 cells, before organelle vesicles extraction. This extracellular organelle vesicle was incubated with thapsigargin at 10 μM during 10 min.
At t=0s, CaCl2 (60 mOsm/L) and ATP (100 μM) were added. Dotted line circles all correspond to the size of the extracellular organelle vesicle before the beginning of the process.

SERCA pump [8] = details: role: inhibitor; cited from earlier work

SMILES: Nc1ccncc1 [4-AP]
- mode of action on TMEM175 ([1]; role: inhibitor): antagonist

SMILES: CCCCC1(C2CCCC2)Cc2cc(OCCCC(=O)O)c(Cl)c(Cl)c2C1=O (stereo not shown) [DCPIB]
- mode of action on TMEM175 ([1]; role: activator): agonist

SMILES: [Cl-].[K+] [KCl]
- deflation of endolysosome vesicle [2]: the vesicle deflates in a few seconds
- re-swelling process of endolysosome vesicle ([2]; following minutes): a re-swelling process is not observed

SMILES: C/C1=C/C(=O)O[C@@H]2C[C@@H](CC[C@H](C)/C=C\C=C\CC1)O[C@@](O)([C@@H]1CSC(=O)N1)C2 [Latrunculin A]
- effect on giant organelle formation from the ER [3]: allows the formation of bigger giant organelles from the ER

SMILES: CO/C1=C\C(C)=C\[C@@H](C)[C@@H](O)[C@@H](C)C/C(C)=C/C=C/[C@H](OC)[C@@H]([C@@H](C)[C@@H](O)[C@H](C)C2(O)C[C@@H](O)[C@H](C)[C@@H](C(C)C)O2)OC1=O (stereo partly shown) [bafylomicin]
- effect on giant extracellular organelle vesicles from autophagosomes [4]: allows to obtain more giant extracellular organelles vesicles coming from autophagosomes

SMILES: COC(=O)Nc1nc2ccc(C(=O)c3cccs3)cc2[nH]1 [nocodazole]
- effect on giant organelle formation from the ER [3]: allows the formation of bigger giant organelles from the ER

SMILES: CO[C@H]1C[C@@H]2CC[C@@H](C)[C@@](O)(O2)C(=O)C(=O)N2CCCC[C@H]2C(=O)O[C@H]([C@H](C)C[C@@H]2CC[C@@H](O)[C@H](OC)C2)CC(=O)[C@H](C)/C=C(\C)[C@@H](O)[C@@H](OC)C(=O)[C@H](C)C[C@H](C)/C=C/C=C/C=C/1C [rapamycin]
- effect on giant extracellular organelle vesicle formation [5]: allows to form bigger giant extracellular organelles vesicles

SMILES: OC[C@H]1O[C@@](CO)(O[C@H]2O[C@H](CO)[C@@H](O)[C@H](O)[C@H]2O)[C@@H](O)[C@@H]1O [sucrose]
- re-swelling process of vesicle ([6]; 60 mOsm/L, following minutes, CaCl2 with ATP (100 μM), sucrose as control): no re-swelling is observed; also recorded: no re-swelling process is visible
- deflation of vesicle on contacting ([6]; CaCl2 60 mOsm/L with ATP (100 μM), or sucrose 60 mOsm without ATP stated, vesicle internal 20 mOsm/L, COS7 ER vesicle): deflates in a few seconds
- transport inside the ER extracellular organelle vesicle ([6]; sucrose 60 mOsm, FIG. 2): not transported inside the ER extracellular organelle vesicle

SMILES: C/C=C(/C)C(=O)O[C@H]1C(C)=C2[C@H]([C@@H]1OC(=O)CCCCCCC)[C@@](C)(OC(C)=O)C[C@H](OC(=O)CCC)[C@@]1(O)[C@H]2OC(=O)[C@@]1(C)O [thapsigargin]
- Vf/Vi1 and Vf/Vi versus reference ratio (SERCA pump [7]; reference ratio obtained without thapsigargin): Vf/Vi1<Vf,ref/Vi1,ref, and Vf/Vi<Vf,ref/Vi,ref
- re-swelling process in presence of inhibitor (SERCA pump [7]): the reswelling process is decreased or not present
- re-swelling process in presence of inhibitor (SERCA pump [7]; listed as thaspigargin): the re-swelling process is almost off
- effect on the transporting activity of SERCA with respect to Ca^2+ (SERCA pump [7]; thapsigargin 10 μM, FIGS. 1 and 6): inhibitory effect
- known activity on the SERCA pump (SERCA pump [8]): known inhibitor of the SERCA pump
